Data taken from US6605115B1, “Method and composition for inhibiting cardiovascular cell proliferation” (Board of Trustees of the Leland Stanford Junior University, priority 1999, dated 2003).

How the values were obtained:
[1] = test system: rabbit carotid artery segment; assay: Ex vivo translocation study, carotid artery segments; parameters: species or system New Zealand white rabbits; details: carotid artery, 10.0 μM, 30 minutes
Description: (§1) After incubation with biotin labeled oligomer, vascular segments were washed, then frozen in OCT compound (Miles Scientific). Frozen sections, 5 μm thick, were fixed with acetone for 10 minutes. Internalized biotin was detected using the staining procedure described in Example 2. Methyl green was used for nuclear counter staining.
(§2) To quantify the efficiency of nuclear translocation, the numbers of both DAB positive nuclei and total nuclei were counted in the intima and media separately at ×400 magnification with a video image analysis system (Automatrix). The frequency of nuclear translocation was expressed as the percent staining of nuclei, defined as the ratio of the number of DAB positive nuclei to that of all nuclei, in the intima and media. Each protocol was repeated 4 times.
Both carotid artery and jugular vein segments of male New Zealand white rabbits were used. To test the dose dependence of R7 translocation, vascular segments were incubated for 30 minutes with either bL-R7 or bD-R7 solution (0.1, 1.0, and 10.0 μM) in serum-free Dulbecco's minimal essential medium (DMEM) (Gibco BRL). To test the incubation time dependence, vascular segments were incubated with 10.0 μM of biotin labeled R7 solution for 10 seconds, 60 seconds, 5 minutes, 10 minutes, and 30 minutes. Furthermore, to determine the ability of R7 to penetrate through the vessel wall, vascular segments were ligated one end, R7 containing medium was instilled, and the other end ligated so as to expose only the luminal surface to R7. The luminal surface of the vascular segment was exposed to bL-R7 or bD-R7 (10.0 μM) for 30 minutes. To test the temperature dependence of translocation, vascular segments were incubated with 10.0 μM of biotin labeled R7 solutions at 37° C. or 4° C. To determine the disappearance time course of translocated R7, vascular segments were incubated with biotin labeled R7 solutions (10.0 μM) at 37° C. for 30 minutes, and then reincubated in DMEM with 10% FBS up to 5 days. Vascular segments were harvested at 1, 2 and 5 days after initial incubation.

[2] = test system: human umbilical vein endothelial cells (ECV304); assay: In vitro translocation of biotin-labeled peptides into endothelial cells; assay type: cell-based
Description: Spontaneously transformed human umbilical vein endothelial cells (ECV304, ATCC) were cultured in medium M199 (Irvine Scientific) containing 10% fetal bovine serum (FBS), 100 IU/ml penicillin and 100 μg/ml of streptomycin (Gibco BRL). Confluent cells were washed and placed in serum-free medium. After 2 hours, the cells were incubated in presence of biotin labeled peptides, as bL-R7, or bD-R7, or bL-K7 (0.1, 1.0, and 10.0 μM). After 30 minutes of incubation, cells were washed 3 times with phosphate-buffered saline (PBS), fixed in ethanol/acetone; washed in PBS; incubated for 30 minutes with peroxidase suppressor (ImmunoPure, Pierce) to block endogenous peroxidase activity; and then incubated with 5 μg/ml of horse-radish peroxidase (HRP) conjugated strepavidin (Pierce) for 30 minutes. Substrate of HRP, diaminobenzidine (DAB, Sigma), was added to the cells. The reaction was terminated by washing in distilled water after a 60-second incubation. This experiment was repeated 3 times.

[3] = test system: rat vascular smooth muscle cells (VSMC); assay: Translocation of biotin-labeled peptides into cultured VSMC (HRP-streptavidin/DAB staining); assay type: cell-based; details: 10 μM, 30 minutes, 37° C.
Description: In the studies described below, transmembrane transport and cellular uptake of oligomers was assessed by incubating cells or tissue with biotin-oligomer conjugates, followed by treatment with horseradish peroxidase (HRP)-conjugated streptavidin and subsequent incubation with DAB (3,3′-diaminobenzidine), a substrate of the enzyme which produces a highly colored product.
Cultured VSMC (vascular smooth muscle cells) were treated, as described in Example 2, with biotinylated oligomers of arginine or lysine. After incubation, the cells were treated with HRP-streptavidin conjugate, then with DAB. Staining by the oxidation product was observed using light microscopy.
Rat VSMCs were grown on glass microscope slide chambers (Nunc Inc., Naperville, Ill.). Subconfluent cells were washed and placed in serum-free medium. After 2 hours, cells were treated with bR7, or bK7 (0.1 μM, 1.0 μM, 10 μM), at 37° C. for 30 minutes. To assess the role of endocytosis in cellular uptake of the peptides, experiments were performed at 4° C., and also in the presence of sodium azide (1.0%) for 30 minutes prior to exposure to the peptides. To assess the involvement of the basic amino acid transport system y+ in the translocation of peptides into the cell, experiments were performed in the presence of excess extracellular L-arginine (10 mM).
After 30 minutes of incubation with the peptides, cells were washed 3 times with phosphate-buffered saline (PBS), fixed for 5 minutes at −20° C. in ethanol/acetone, washed 3 times in PBS, incubated for 30 minutes with a peroxidase suppressor (ImmunoPure, Pierce, Rockford, Ill.) to block endogenous peroxidase activity and nonspecific binding, washed, and then incubated with 5 μg/ml of horseradish peroxidase (HRP) conjugated strepavidin (Pierce, Rockford, Ill.) for 30 minutes. Cells were washed 3 times with PBS, and a substrate of HRP, DAB (Sigma, St. Louis, […].), was added to the cells. The reaction was terminated by washing in distilled water after a 60-second incubation with DAB. Cell preparations were observed by conventional light microscopy (see FIG. 1). This experimental protocol was repeated 3 times.

jugular vein segments = assay: Ex vivo translocation study, jugular vein segments; parameters: species or system New Zealand white rabbits; details: 10 μM, 30 minutes
Description: as §1, §2
Both carotid artery and jugular vein segments of male New Zealand white rabbits were used. To test the dose dependence of R7 translocation, vascular segments were incubated for 30 minutes with either bL-R7 or bD-R7 solution (0.1, 1.0, and 10.0 μM) in serum-free Dulbecco's minimal essential medium (DMEM) (Gibco BRL). To test the incubation time dependence, vascular segments were incubated with 10.0 μM of biotin labeled R7 solution for 10 seconds, 60 seconds, 5 minutes, 10 minutes, and 30 minutes. […]

cytokine-stimulated VSMC [4] = assay: Effect of arginine oligomers on NO production in cytokine-stimulated VSMC (NO2, Griess); assay type: cell-based, rat; details: exposure 5 minutes; observed for 24 hours; free L-arginine at 1 mM
iNOS protein = assay: Assay for iNOS protein expression (western blotting); assay type: cell-based, rat; details: 10 μM, 30 minutes exposure, cells stimulated by IFN-γ and LPS
Description: In order to clarify the effects of arginine polymer translocation on iNOS expression, iNOS protein concentrations of rat VSMC were analyzed by western blotting. Samples were analyzed from non-stimulated cells, cells stimulated with IFN-γ (100 U/ml) and LPS (100 μg/ml), or R7 (10 μM) pretreated cells which were stimulated with IFN-γ and LPS. Treated cells were washed twice with PBS, and total cell lysates were harvested in 150 μl of lysis buffer containing 150 mM NaCl, 50 mM Tris/Cl, pH 8.0, 1% NP40, and 0.1% SDS. Samples were centrifuged for 5 minutes at 14,000 g, 4° C., to remove insoluble material, and the supernatant was collected. Protein concentrations were measured with the Lowry method. Cell lysates containing 50 μg of protein were boiled for 5 minutes and separated on an 8.0% SDS-polyacrylamide minigel. Eluted proteins were electroblotted onto nitrocellulose membrane (HyBond, Amersham, England). The blots were incubated for 1 hour in 5% non-fat dry milk/0.05% Tween® in Tris buffered saline (TBS) to block non-specific binding of the antibody. Blots were incubated for 3 hours with primary monoclonal antibodies against iNOS protein diluted 1:2,500 in TBS/Tween®. The blots were then incubated with peroxidase labeled gout anti-mouse IgG in the same buffer for 1 hour. […]

vein graft segments = assay: Ex vivo NOx production from vein graft harvested 3 days after surgery; assay type: in vivo, New Zealand white rabbits; details: vein grafts harvested after 3 days, absence of calcium ionophore
Description: Vein grafts were harvested 3 days after surgery, as described in Example 7. Vein graft segments were incubated in 1 me of Hanks' buffered saline solution (HBSS, Irvine Scientific) containing Ca^2+ (1.0 mM) and L-arginine (100 μM, Sigma) at 37° C. for 2 hours. NOx (nitrate and nitrite) production was measured either in the absence (basal) or presence (stimulated) of calcium ionophore (A23187, 10.0 μM, Sigma). Samples of the medium (80 μL) were collected, and NOx measurement was performed using the Griess reaction facilitated by a commercial calorimetric assay (Cayman Chemical).

vein grafts = assay: Vein graft model: vessel morphometry 28 days after surgery; assay type: in vivo, New Zealand white rabbits
Description: Male New Zealand white rabbits (3.0-3.5 kg) fed standard diets were anesthetized with a mixture of ketamine (40 mg/kg) and xylazine (5 mg/kg) intramuscularly. The left external jugular vein was exposed through a longitudinal neck incision. The jugular vein was excised, gently flushed and immersed in PBS (control) or PBS containing either L-R7 (10.0 μM) or D-r7 (10.0 μM) for 30 minutes.
The right common carotid artery was exposed and clamped at the both proximal and distal ends. The treated vein segment was washed with PBS and then anastomosed in a reverse end-to-side fashion into the carotid artery, using continuous 8-0 polypropylene sutures. The common carotid artery was ligated and dissected between the two anastomoses, and the wound was closed with 3-0 nylon suture.
Vein graft segments were harvested on the 28th surgical day. Graft segments were fixed in 10% buffered formalin with gentle intraluminal pressure to maintain the physiological graft configuration. The middle portion of the paraffin samples were sectioned (5 μm) and stained with hematoxylin/eosin for light microscopic examination (FIGS. 8A-C). Three sections of each graft, taken at 0.5 mm intervals, were analyzed by planimetry by a observer blinded to the treatment group. The cross-sectional areas of the lumen, intima and media was digitized with the use of the Image Analyst program (Automatrix). The ratio of intima to media (I/M) area was calculated.

Rat aortic VSMC = assay: VSMC proliferation assay (XTT); assay type: cell-based; details: 10.0 μM, 30 minutes, then growth medium 0.5% FBS for 48 hours; vs vehicle
Description: Rat aortic VSMC were grown to 50% confluence in 96-well cell culture plates. VSMC were then washed and incubated with serum free DMEM for 48 hours to obtain quiescent nondividing cells. Thereafter, VSMC were treated with vehicle, L-R7 (10.0 μM), or D-R7 (10.0 μM) for 30 minutes. After the treatment, cells were washed, and further incubated with serum containing DMEM (0.5%, FBS). Cells were harvested after 48 hours of incubation. Cell count was performed with commercial cell proliferation assay kit using spectrophotometer (XTT, Boehringer Mannheim). As a negative control, cells treated with vehicle and incubated with DSF were used. As an index of cell proliferation, the OD ratio of each treatment group to negative control group was calculated as an index of cell proliferation.

cytokine-stimulated VSMC [5] = assay: Effect of arginine oligomers on NO production in cytokine-stimulated VSMC (NO2, Griess); assay type: cell-based, rat
Description: Rat VSMCs were prepared from the media layer of thoracic aorta of Sprague-Dawley rats by the explant method. The cells were cultured in Dulbecco's modified Eagle's medium (DMEM, Gibco BRL, Gaithersburg, Md.) containing 10% fetal calf serum, 100 U/ml penicillin and 100 μg/ml streptomycin at 37° C. under a humidified atmosphere containing 5% CO2. After subconfluent growth, cells were cultured with MEM Select Amine Kit (Gibco BRL, Gaithersburg, Md.) to be treated by specific concentrations of extracellular free L-arginine. Experiments were performed using cultured cells at passage levels of 5-10.
Extracellular NO production was measured as its stable oxidative metabolite, nitrite (NO2). At the end of each incubation, samples of the medium (80 μl) were collected, and NO2 measurement was performed using the Griess reaction facilitated by a commercial calorimetric assay (Cayman Chemical, Ann Arbor, Mich.). Values of NO2 production were corrected with relative cell count assessed by a cell proliferation kit II (XTT) (Boeheringer Mannheim, Germany).
Subconfluent cells were pre-incubated with medium containing 100 μM arginine for 24 hours. The cells were then transiently pretreated with each arginine polymer for 30 minutes. After translocation, the cells were incubated with a mixture of IFN-γ (100 U/ml) and LPS (100 μg/ml) in medium containing 100 μM L-arginine for another 24 hours. In some experiments, L-NMMA (1 mM), a nitric oxide synthase inhibitor, was added to the medium.

Row | Substance | biotin signal in vascular cells [1] | internalized biotin signals ([2]; endothelial cells, 0.1, 1.0, and 10.0 μM, 30 minutes) | internalized biotin signal (staining) [3] | biotin staining pattern (jugular vein segments) | NO biosynthesis after 5 minutes exposure (cytokine-stimulated VSMC [4]) | expression levels of iNOS (iNOS protein) | translocation across cytoplasmic and nuclear membranes ([2]; VSMC and endothelial cells in culture) | Basal NOx production (vein graft segments) [nM/mg tissue/hr] | myointima formation (vein grafts) | intima/media ratio (I/M) (vein grafts; 10.0 μM) | intimal area (vein grafts; 10.0 μM, 30 minutes immersion) [mm^2] | reduction of intimal area (vein grafts; 10.0 μM, vs control) | VSMC proliferation (Rat aortic VSMC) | elevation of NO production (cytokine-stimulated VSMC [5]; R7 10 μM pretreatment, free L-arginine up to 1 mM) | NO production (cytokine-stimulated VSMC [5]; pretreatment 30 minutes, then IFN-γ and LPS, 100 μM extracellular L-arginine) | degree of enhancement of NO production (cytokine-stimulated VSMC [5]; pretreatment 30 minutes, vs. vehicle treated cytokine-stimulated cells) [%]
1 | biotin-labeled heptalysine [bK7, reference compound] | no stained cells were apparent | No internalized biotin signals were detected | no internalized biotin signal was observed | no stained cells were apparent | – | – | – | – | – | – | – | – | – | – | – | –
2 | hepta-L-arginine [R7] | – | – | – | – | sustained increase in NO biosynthesis | no effect on the expression levels of iNOS | very efficient at translocating across both cytoplasmic and nuclear membranes | 80±14 | substantially less myointima formation | 0.4±0.2 | 0.5±0.2 | more than 70% | significantly inhibited | significant elevation of NO production | dose-dependent increases in NO production at doses as low as 10 μM | 24±3.8
